From publication PMC8875489, “Pharmaceutical and Safety Profile Evaluation of Novel Selenocompounds with Noteworthy Anticancer Activity” (Pharmaceutics, 2022)
Like-named read-outs stand apart in the source and are kept apart here.

Tests used:
[1] = PAMPA membrane permeability test (capillary electrophoresis); format: in vitro ADME; details: for Papp at 5 h, 50 µM: 50 μM in PBS pH 7.4, 5 h, room temperature, read-out: In Vitro Permeability; for % Perm. (percentage that crossed from the donor well to the acceptor well): 5 h
Experimental: The passive transport and membrane absorption of 5 selected selenocompounds (EDA-58, EDA-71, EDA-119, EDA-122, and EDA-A6) were evaluated with the in vitro parallel artificial membrane permeability assay (PAMPA). This PAMPA assay could provide better predictability and membrane permeability correlations compared to the data obtained for human absorption in the Caco-2 cell line. The Precoated PAMPA Plate System Gentest™ (Corning, Bradford, MA, USA) was used to perform the permeability assay for the 5 selected Se compounds. The protocol of the permeability assay was similar to the previously described ones and is detailed in the Supplementary Materials.
Five selenocompounds (EDA-58, EDA-71, EDA-119, EDA-122, and EDA-A6) were evaluated with the PAMPA in vitro assay using the CE technique.
[formula] Scheme 1 Calculation of the in vitro permeability (cm/s). A (filter area) cm^2 = 0.3; VD (donor well volume) mL = 0.3; VA (acceptor well volume) mL = 0.2; t (incubation time) seconds = 18,000; CA(t) (compound concentration in acceptor well at time t); CD(t) (compound concentration in donor well at time t). […]
1.3. PAMPA test: membrane permeability evaluation.
The passive transport and the membrane absorption of 5 selected selenocompounds (EDA-58, EDA-71, EDA-119, EDA-122, EDA-A6) were evaluated in the in vitro Parallel Artificial Membrane Permeability Assay (PAMPA). The protocol of the permeability assay was similar to the ones previously described.
1.3.1. Stock solutions and sample preparation for PAMPA test
Working solutions of the tested compounds at the concentration of the 50 μM in the phosphate saline buffer (PBS, pH 7.4) were prepared from the stocks in the pure dimethyl sulfoxide (DMSO) and stored at -20° C. Moreover, to draw the precise calibration curves for each tested (EDA-58, EDA-71, EDA-119, EDA-122, EDA-A6) and reference com- […]
The Precoated PAMPA Plate System Gentest™ (Corning, Bradford, MA, USA) was used to perform permeability assay for the 5 selected Se-compounds. The essential part of […]
solvents. PAMPA Plate System was brought to room temperature 30 min before use.
The 96-well filter plate precoated with lipids was used as a permeation acceptor, whereas the 96-well receiver plate acted as the permeation donor plate. Therefore, the compound solutions were added to the wells (300 μL/well) of the receiver plate and PBS was added to wells (200 μL/well) of the precoated filter plate.
Then, the filter plate was coupled with the receiver plate and both were incubated at room temperature for five hours without agitation. […] Fi-nally, the permeability coefficients (Pe, [cm/s]) of the tested compounds were estimated using the formula provided by the PAMPA Plate System manufacturer.
1.3.3. Capillary electrophoresis (CE) analytical method […]
were calculated in both the donor and acceptor compartments using the capillary electro-

[2] = system: Salmonella Typhimurium TA100 strain; details: for Fold Increase over Baseline / MI (mutagenic index) / B (binomial B value) / cytotoxic effect label beside B value: TA100; for Fold Increase over Baseline: alert ≥ 2.0; for MI (mutagenic index): mutagenic if MI ≥ 2; for B (binomial B value): threshold ≥ 0.99; for mutagenicity conclusion in Ames test: TA100, 1 and 10 µM
Experimental: Safety profiles were evaluated using an in vitro microbiological method adapted to the microplate Ames test (384-well microtitration plate), which applies Salmonella enterica serovar Typhimurium bacterial strains (the gold standard in mutagenicity research). The experiment was performed according to a previously described protocol, which is provided in the Supplementary Materials. Briefly, the TA 100 strain (deprived of the ability to synthesize the histidine) was incubated with each tested compound in an exposure medium containing a limited amount of histidine. The reversion events were counted both manually and by means of a microplate reader. Each fold increase bigger than two times the baseline level (≥2.0-fold) was considered to indicate a mutagen alert. The experiments and data analyses were prepared according to the procedure that was previously described by Flückiger-Isler et al.. The assay was performed in triplicate. The positive control selected for the mutagenicity assays was NQNO, which causes genome point mutations; specifically, it promotes G:C → A:T transitions in the Salmonella Typhimurium TA-100 strain and other bacteria such as Vibrio harveyi and Escherichia coli.
In the next step of the studies, the in vitro safety profiles of the tested selenocompounds were evaluated. All compounds were tested with the 384-well plate microfluctuation Ames test. The mutagenic index (MI) was used as the measure of mutagenicity.
1.5. Safety profile evaluation - Ames microplate mutagenicity assay
Safety profile was evaluated by the means of in vitro microbiological methods – adapted to microplate Ames test, which applies Salmonella enterica serovar Typhimurium bacterial strains (the gold standard in mutagenicity research).
1.5.1. Compounds preparation
To evaluate the impact of tested compounds and of references on Salmonella enterica serovar Typhimurium (onwards Salmonella Typhimurium) TA-100 strain growth by means of the Ames test, the compounds or the reference were dissolved in the pure DMSO, to obtain the corresponding 10 mM stock solutions. Working solutions for tested compounds (25 μM and 250 μM concentrations) were prepared before the assay in DMSO.
1.5.2. Microplate Ames mutagenicity assay protocol
Prior to the experiment, Salmonella Typhimurium was cultured overnight (NB-2 liq-uid medium in the presence of 25 μg/mL ampicillin). At the day of the experiment, fresh dilutions of the tested compounds (25 μM and 250 μM), reference compound (methylse-leninic acid) and standard mutagen (4-nitroquinoline-N-oxide at 2.5 μM and 12.5 μM) in DMSO were prepared. The positive control selected for the mutagenicity assays was NQNO, which causes point mutations at the genome. Specifically, it promotes G:C → A:T transitions in Salmonella Typhimurium TA-100 strain and in the other bacteria such as Vib-rio harveyi and Escherichia coli.
The mutagenic potential of the tested derivatives was evaluated by the incubation of the abovementioned bacteria (deprived of the ability to synthesize the histidine) with spe-cific concentrations of the tested compounds (for 90 min in the exposure medium), con-taining a limited amount of histidine (enough to provide approximately 2-3 cell divisions).
The occurrence of reversion events to histidine prototrophy was observed through the bacterial growth in the indicator medium without histidine after 48 h of incubation in temperature of 37° C [45]. The final compound and the mutagenic agent concentrations in each single well of a 384 well plate were 1 μM and 10 μM for the compounds; and 0.1 μM and 0.5 μM for the mutagen. Lastly, both a manual count and a microplate reader were used to obtain the results. The medium control baseline (MCB) was estimated as the mean number of revertants in the medium control plus one standard deviation. Each fold in-crease bigger than two times the baseline level ≥ 2.0 was considered as a mutagen alert.

Row | SMILES | permeability compared with caffeine [1] | Papp at 5 h, 50 µM [1] [×10⁻⁶ cm/s] | % Perm. (percentage that crossed from the donor well to the acceptor well) [1] [%] | Fold Increase over Baseline ([2]; 1 µM) | MI (mutagenic index) ([2]; 1 µM) | B (binomial B value) ([2]; 1 µM) | Fold Increase over Baseline ([2]; 10 µM) | MI (mutagenic index) ([2]; 10 µM) | B (binomial B value) ([2]; 10 µM) | cytotoxicity for Salmonella Typhimurium in Ames test ([2]; 10 µM) | cytotoxic effect label beside B value ([2]; 10 µM) | mutagenicity conclusion in Ames test [2]
1 | COC(=O)C[Se]C(=O)c1cc(OC)cc(OC)c1 [EDA-58, methyl 2-((3,5-dimethoxybenzoyl)selanyl)acetate] | lower permeability values than caffeine | 2.22 | 3.95 | 0.67 | 0.57 | 0.80 | 1.78 | 1.51 | 1.00 |  |  | 
2 | C[Se]C(=O)c1ccc(C(=O)[Se]C)s1 [EDA-122, Se,Se-dimethyl thiophene-2,5-bis(carboselenoate)] | higher permeability values than caffeine | 4.67 | 8.20 | 0.63 | 0.84 | 0.14 | 1.08 | 1.46 | 0.94 |  |  | 
3 | C[Se]C(=O)c1ccc(C(=O)[Se]C)cc1 [EDA-109, Se,Se-dimethyl benzene-1,4-bis(carboselenoate)] |  |  |  | 0.55 | 0.96 | 0.07 | 0.39 | 0.67 |  | cytotoxic activity was observed | C (data points that are significantly smaller (B ≤ 0.01 (bolded)) than the mean number of spontaneous revertants are labelled C for “cytotoxic effect”) | 
4 | C[Se]C(=O)c1cccc(C(=O)[Se]C)c1 [EDA-120, Se,Se-dimethyl benzene-1,3-bis(carboselenoate)] |  |  |  |  | 1.24 | 1.00 |  | 1.46 | 1.00 |  |  | non-mutagenic
5 | CC(=O)C[Se]C(=O)c1ccc(Cl)cc1 [EDA-71, Se-(2-oxopropyl) 4-chlorobenzoselenoate] | higher permeability values than caffeine | 3.86 | 6.81 | 0.60 | 0.54 | 0.34 | 0.89 | 0.79 | 0.98 |  |  | 
6 | CC(C)(C)C(=O)C[Se]C(=O)c1ccc(Cl)cc1 [EDA-73, Se-(3,3-dimethyl-2-oxobutyl) 4-chlorobenzoselenoate] |  |  |  | 0.84 | 1.28 | 0.72 | 0.52 | 0.79 | 0.04 |  |  | 
7 | O=C(C[Se]C(=O)c1ccccc1)Oc1ccccc1 [EDA-93, phenyl 2-(benzoylselanyl)acetate] |  |  |  | 1.02 | 1.27 | 0.96 | 0.87 | 1.08 | 0.80 |  |  | 
8 | C[Se]C(=O)c1cccc(C(=O)[Se]C)n1 [EDA-119, Se,Se-dimethyl pyridine-2,6-bis(carboselenoate)] | lower permeability values than caffeine | 3.27 | 5.79 | 0.54 | 0.56 | 0.24 | 0.92 | 0.96 | 0.90 |  |  | 
9 | O=C1[Se]C(=O)c2ccccc21 [EDA-A6, benzo[c]selenophene-1,3-dione] | higher permeability values than caffeine | 3.44 | 6.08 | 1.08 | 1.23 | 0.94 | 0.33 | 0.38 | 0.001 | could have been cytotoxic | C (data points that are significantly smaller (B ≤ 0.01 (bolded)) than the mean number of spontaneous revertants are labelled C for “cytotoxic effect”) | 
10 | COC(=O)C[Se]C(=O)c1cc(OC)c(OC)c(OC)c1 [EDA-26, methyl 2-((3,4,5-trimethoxybenzoyl)selanyl)acetate] |  |  |  | 0.96 | 1.51 | 0.92 | 1.37 |  |  |  |  | may have had mutagenic potential
11 | COc1cc(OC)cc(C(=O)[Se]CC(=O)C(C)(C)C)c1 [EDA-74, Se-(3,3-dimethyl-2-oxobutyl) 3,5-dimethoxybenzoselenoate] |  |  |  | 0.98 | 0.88 | 0.94 | 0.76 | 0.69 | 0.68 |  |  | 
